Measurements as given in PubChem BioAssay AID463081 (The Scripps Research Institute Molecular Screening Center, 2010).

Biological target: Glutathione S-transferase omega-1 (Homo sapiens) (UniProt P78417)
Assay: IC50 of human GSTO1 inhibition by gel ABPP – biochemical, SE-Rh probe, in-gel fluorescence, powder samples, late-stage follow-up (AID 463081)
Conditions: recombinant GSTO1, SE-Rh probe labeling

Chain of Glutathione S-transferase omega-1 (Homo sapiens) (P78417 whole entry, looked up): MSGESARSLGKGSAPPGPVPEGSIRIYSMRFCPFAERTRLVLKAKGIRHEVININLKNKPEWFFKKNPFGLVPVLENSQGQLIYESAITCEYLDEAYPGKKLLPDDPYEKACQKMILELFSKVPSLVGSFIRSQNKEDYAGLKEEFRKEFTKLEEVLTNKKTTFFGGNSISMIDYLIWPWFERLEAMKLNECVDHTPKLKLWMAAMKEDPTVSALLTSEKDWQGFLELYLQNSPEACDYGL

IC50: 22 nM
SMILES: COc1ccc(C(C(=O)NC2CCCCC2)N(C(=O)CCl)c2ccc(Cl)cc2)cc1 (stereo unspecified)
